In patent US20070259865A1, “Agent for Promoting the Recovery from Dysfunction After the Onset of Central Neurological Disease” (Astellas Pharma Inc., priority 2004, published 2007):

What was measured:
[1] = test system: cerebral infarction rat model; experiment: Foot-fault test, walking function in cerebral infarction rat model; format: in vivo; details: vs. control group; forepaw on the disordered side; Compound A 5 and 10 mg/kg; D-amphetamine 0.75 and 1.5 mg/kg intraperitoneally; FIGS. 1-3 (b)
From the text: (§1) Blood Flow Metab. 8, 474-485, 1988.

[2] = test system: cerebral infarction rat model; experiment: Staircase test, forepaw function in cerebral infarction rat model; details: vs. control group, Compound A 5 mg/kg orally five times per week, D-amphetamine 1.5 mg/kg intraperitoneally twice per week, to week 6; for forepaw dysfunction, number of displaced pellets in the staircase test: FIG. 4 (a); for forepaw dysfunction, number of eaten pellets in the staircase test: FIG. 4 (b)
[3] = test system: spontaneous hypertension rats; experiment: Effect on the circulatory system (heart rate); format: in vivo, rat
Protocol: After a cannula was inserted into the common carotid artery, heart rates were monitored. […] For the control group, physiological saline was administered intraperitoneally and the measurement was similarly conducted. Statistical analysis was conducted by one-way repeated-measures analysis of variance.

[4] = test system: cerebral infarction rat model; experiment: Beam-walking test, walking function in cerebral infarction rat model; format: in vivo; details: vs. control group; male spontaneous hypertension rats after MCA occlusion; Compound A 5 and 10 mg/kg; D-amphetamine 0.75 and 1.5 mg/kg intraperitoneally; FIGS. 1-3 (a)
From the text: as §1

[5] = test system: cerebral infarction rat model; details: D-amphetamine 0.75 and 1.5 mg/kg, FIG. 5

SMILES	improvement effect on gait function in the foot-fault test (% foot-faults) [1]	forepaw dysfunction, number of displaced pellets in the staircase test [2]	forepaw dysfunction, number of eaten pellets in the staircase test [2]	effect on heart rate ([3]; rat, in vivo)	improvement effect on gait function in the beam-walking test (score) [4]	effect on heart rate ([3]; recorded until 4 hours after administration, Compound A orally, D-amphetamine intraperitoneally, vs. basal value, FIG. 6)	effect on the number of steps (locomotor activity, excitatory effect) [5]
Cl.Fc1ccc(OC[C@@H]2CNCCO2)c2c1CCC2 [Compound A, (S)-2-[[(7-Fluoro-4-indanyl)oxy]methyl]morpholine hydrochloride]	significant improvement effect	significant improvement effect	significant improvement effect	no effect on heart rate	significant improvement effect		
C[C@H](N)Cc1ccccc1 [D-amphetamine]		the effect was not significant	the effect was not significant			significant accentuation of heart rate	remarkable increase in the number of steps
CNCCC(Oc1ccc(C(F)(F)F)cc1)c1ccccc1 (centres unmarked) [fluoxetine, Fluoxetine]	no evident improvement effect				no evident improvement effect		
